# Measured values taken from US7067537B2, “Substituted thiazole derivatives bearing 3-pyridyl groups, process for preparing the same and use thereof” (Takeda Pharmaceutical Company Limited, priority 2000, dated 2006).
# Counter-ions that a name gives are not always drawn.
# Assays:
# Rat C17,20-lyase = target: T1, Rat C17,20-lyase (Rattus norvegicus, UniProt P11715); test: Assay of steroid C17,20-lyase-inhibitory activity in rat (testis microsome, TLC of 3H-labelled products); type: biochemical; conditions: microsome from orchis of 13-week-old male SD rat; [1.2-3H]-17α-hydroxyprogesterone 10 nM, NADPH; pH 7.4; 37° C., 7 min; read-out: In vitro enzyme inhibitory activity (IC50) Rat C17,20-lyase
# T1 construct: The orchis was homogenized and centrifuged to prepare a microsome; from tissue; host or cells: testis (orchis) microsomes of 13-week-old male SD rat
# T1 sequence (P11715 1-507): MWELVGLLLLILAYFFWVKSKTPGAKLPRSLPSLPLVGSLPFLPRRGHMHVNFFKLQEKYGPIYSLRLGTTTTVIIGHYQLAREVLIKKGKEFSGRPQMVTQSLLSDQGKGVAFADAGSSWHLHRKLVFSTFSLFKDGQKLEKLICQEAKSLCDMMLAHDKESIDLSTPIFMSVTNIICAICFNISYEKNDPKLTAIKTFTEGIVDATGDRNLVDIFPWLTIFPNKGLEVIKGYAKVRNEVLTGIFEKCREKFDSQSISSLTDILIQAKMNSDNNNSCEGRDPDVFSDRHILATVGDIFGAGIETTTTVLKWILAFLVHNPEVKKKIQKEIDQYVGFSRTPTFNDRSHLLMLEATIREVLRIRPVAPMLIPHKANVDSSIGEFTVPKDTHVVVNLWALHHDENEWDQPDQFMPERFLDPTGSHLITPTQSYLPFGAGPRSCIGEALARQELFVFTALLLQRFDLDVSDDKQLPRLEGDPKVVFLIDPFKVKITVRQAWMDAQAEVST
# Method: Assay of Steroid C17,20-lyase-inhibitory Activity in Rat
# The assay was performed according to The Prostate, Vol. 26, 140–150 (1995). The orchis was removed from 13-week-old male SD rat. The orchis was homogenized and centrifuged to prepare a microsome. The [1.2-^3H]-17α-hydroxyprogesterone having a final concentration of 10 nM, NADPH solution and the test compound were was dissolved in a 100 mM phosphate buffer solution (10 μl, pH 7.4). Microsome protein (7 μg/10 μl) was added and the mixture was incubated at 37° C. for 7 min. Ethyl acetate (40 μl) was added and the mixture was centrifuged, and the substrate and the product (androstenedione and testosterone) in the supernatant were separated by silica gel thin layer chromatography (TLC). The spot was detected and quantitatively assayed by a BAS 2000 bioimage analyzer. Taking the production amount when the test compound was not added (control) as 100%, the concentration (IC50) of the compound necessary for 50% inhibition of the product amount relative to the control was calculated.
SMILES,melting point,"IC50 (Rat C17,20-lyase)"
Fc1ccc(-c2nc(-c3cccnc3)cs2)cc1 (as salt: HBr) [Compound 136],225 to 227 °C,–
COc1ccncc1-c1nc(-c2ccc(C)cc2C)cs1 (as salt: HCl) [Compound 85],154 °C,–
"Cc1ccncc1-c1csc(-c2ccc(F)cc2)n1 (as salt: HCl) [Compound 137, 3-[2-(4-fluorophenyl)-1,3-thiazol-4-yl]-4-methylpyridine]",180 to 183 °C,–
"Cc1ccncc1-c1nc(-c2ccc(Cl)cc2)cs1 [Compound 74, 3-[4-(4-chlorophenyl)-1,3-thiazol-2-yl]-4-methylpyridine]",119 °C,–
COc1ccncc1-c1nc(-c2ccc(C)cc2C)cs1 [Compound 85],–,30 nM
Cc1ccc(-c2csc(-c3cnccc3C)n2)cc1 [Compound 103],98 °C,< 10 nM
"Cc1ccncc1-c1csc(-c2ccc(S(N)(=O)=O)cc2)n1 [Compound 135, 4-[4-(4-methyl-pyridin-3-yl)-1,3-thiazol-2-yl]benzenesulfonamide]",192 to 195 °C,–
Fc1ccc(-c2nc(-c3cccnc3)cs2)cc1 [Compound 136],–,14 nM
NC(=O)CNc1ccncc1-c1nc(-c2ccc(Cl)cc2)cs1 [Compound 144],202 °C,–
"CN(C)C(=O)c1ccncc1-c1nc(-c2ccc(Cl)cc2)cs1 [Compound 146, 3-[4-(4-chlorophenyl)-1,3-thiazol-2-yl]-N,N-dimethylisonicotinamide]",195 °C,–
NC(=O)c1ccncc1-c1nc(-c2ccc(Cl)cc2)cs1 [Compound 147],201 °C,–
"Cc1ccncc1-c1nc(-c2ccc(Cl)cc2)c(Cl)s1 [Compound 150, 3-[5-chloro-4-(4-chlorophenyl)-1,3-thiazol-2-yl]-4-methylpyridine]",146 °C,–
"Cc1ccc(-c2nc(-c3cnccc3C)sc2F)cc1 [Compound 153, 3-[5-fluoro-4-(4-methylphenyl)-1,3-thiazol-2-yl]-4-methylpyridine]",96 °C,–
"Cc1ccncc1-c1nc(-c2ccc(S(N)(=O)=O)cc2)cs1 [Compound 154, 4-[2-(4-methylpyridin-3-yl)-1,3-thiazol-4-yl]benzenesulfonamide]",219 °C,–
"CNC(=O)c1ccc(-c2nc(-c3cnccc3C)cs2)cc1 [Example 29, N-methyl-4-[4-(4-methylpyridin-3-yl)-1,3-thiazol-2-yl]benzamide]",115 °C,–
"CNC(=O)c1ccc(C)c(-c2nc(-c3cnccc3C)cs2)c1 [Example 30, N, 4-dimethyl-3-[4-(4-methylpyridin-3-yl)-1,3-thiazol-2-yl]benzamide]",140 to 143 °C,–
"Cc1ccncc1-c1csc(-c2cc(C(=O)N(C)C)ccc2C)n1 [Example 31, N,N,4-trimethyl-3-[4-(4-methylpyridin-3-yl)-1,3-thiazol-2-yl]benzamide]",180 to 182 °C,–
"Cc1ccncc1-c1csc(-c2cc(C(=O)N3CCCC3)ccc2C)n1 [Example 32, 4-methyl-3-{2-[2-methyl-5-(pyrrolidine-1-ylcarbonyl)phenyl]-1,3-thiazol-4-yl}pyridine]",149 to 150 °C,–
"CNC(=O)c1cc(-c2nc(-c3cnccc3C)cs2)ccc1Cl [Example 34, 2-chloro-N-methyl-5-[4-(4-methylpyridin-3-yl)-1,3-thiazol-2-yl]benzamide]",127 to 129 °C,–
"Cc1ccncc1-c1csc(-c2cc(NC=O)ccc2C)n1 [Example 37, 4-methyl-3-[4-(4-methylpyridin-3-yl)-1,3-thiazol-2-yl]phenylformamide]",127 to 129 °C,–

# Other lines, results leading:
melting point,"IC50 (Rat C17,20-lyase)",SMILES
154 to 155 °C,–,CC(=O)Nc1cccc(-c2csc(-c3cnccc3C(F)(F)F)n2)c1.Cl
205 to 207 °C,–,CS(=O)(=O)Nc1ccc(-c2csc(-c3cnccc3C(F)(F)F)n2)cc1.Cl
231 to 233 °C,–,COc1cccc(-c2csc(-c3cccnc3)n2)c1 (as salt: HBr) [Compound 49]
93 to 95 °C,–,COc1ccc(-c2csc(-c3cnccc3C(F)(F)F)n2)cc1 (as salt: HCl) [Compound 64]
162 to 165 °C,–,"CS(=O)(=O)Nc1cccc(-c2csc(-c3cnccc3C(F)(F)F)n2)c1 (as salt: hydrochloride) [Compound 161, N-(3-{2-[4-(trifluoromethyl)pyridin-3-yl]-1,3-thiazol-4-yl}phenyl)methanesulfonamide]"
–,33 nM,COc1cccc(-c2csc(-c3cccnc3)n2)c1 [Compound 49]
69 to 71 °C,< 10 nM,FC(F)(F)c1ccncc1-c1nc(-c2ccc(Br)cc2)cs1 [Compound 53]
–,< 10 nM,COc1ccc(-c2csc(-c3cnccc3C(F)(F)F)n2)cc1 [Compound 64]
129 °C,< 10 nM,"Cc1ccncc1-c1nc(-c2ccc(F)cc2)cs1 [Compound 78, 3-[4-(4-fluorophenyl)-1,3-thiazol-2-yl]-4-methylpyridine]"
146 °C,–,"CC(C)(O)c1ccncc1-c1nc(-c2ccc(Cl)cc2)cs1 [Compound 145, 2-{3-[4-(4-chlorophenyl)-1,3-thiazol-2-yl]pyridin-4-yl}propan-2-ol]"
205 °C,–,CNC(=O)c1ccncc1-c1nc(-c2ccc(Cl)cc2)cs1 [Compound 148]
217 °C,–,"NS(=O)(=O)c1ccc(-c2csc(-c3cnccc3C(F)(F)F)n2)cc1 [Compound 155, 4-{2-[4-(trifluoromethyl)pyridin-3-yl]-1,3-thiazol-4-yl}benzenesulfonamide]"
71 to 72 °C,–,"Nc1ccc(-c2csc(-c3cnccc3C(F)(F)F)n2)cc1 [Compound 156, 4-{2-[4-(trifluoromethyl)pyridin-3-yl]-1,3-thiazol-4-yl}aniline]"
> 300 °C,–,"Cc1ccncc1-c1nc(-c2ccc(C(=O)O)cc2)cs1 [Compound 163, 4-[2-(4-methylpyridin-3-yl)-1,3-thiazol-4-yl]benzoic acid]"
192 to 193 °C,–,"NC(=O)c1ccc(-c2csc(-c3cnccc3C(F)(F)F)n2)cc1 [Compound 164, 4-{2-[4-(trifluoromethyl)pyridin-3-yl]-1,3-thiazol-4-yl}benzamide]"
222 to 225 °C,–,"Cc1ccncc1-c1nc(-c2ccc(C(N)=O)cc2)cs1 [Compound 165, 4-[2-(4-methylpyridin-3-yl)-1,3-thiazol-4-yl]benzamide]"
106 to 108 °C,–,"Cc1ccncc1-c1csc(-c2cccc(C(=O)N(C)C)c2)n1 [Example 27, N,N-dimethyl-3-[4-(4-methylpyridin-3-yl)-1,3-thiazol-2-yl]benzamide]"
155 to 157 °C,–,"Cc1ccncc1-c1csc(-c2ccc(C(N)=O)cc2)n1 [Example 28, 4-[4-(4-methylpyridin-3-yl)-1,3-thiazol-2-yl]benzamide]"
195 to 196 °C,–,"CNC(=O)c1ccc(F)c(-c2nc(-c3cnccc3C)cs2)c1 [Example 33, 4-fluoro-N-methyl-3-[4-(4-methylpyridin-3-yl)-1,3-thiazol-2-yl]benzamide]"
205 to 207 °C,–,"CC(=O)Nc1ccc(-c2nc(-c3cnccc3C)cs2)cc1 [Example 36, N-{4-[4-(4-methylpyridin-3-yl)-1,3-thiazol-2-yl]phenyl}acetamide]"
151 to 152 °C,–,"CC(=O)Nc1ccc(C)c(-c2nc(-c3cnccc3C)cs2)c1 [Example 38, N-{4-methyl-3-[4-(4-methylpyridin-3-yl)-1,3-thiazol-2-yl]phenyl}acetamide]"
